Columns and labels:
[1] = tested on: Human pancreatic beta cells; experiment: Insulin release (secretion index) by human pancreatic beta cells; format: cell-based
Description: Human pancreatic beta cells were incubated in 5 […], or 25 mM glucose (HG), in the absence or in the presence of 100 nM ABA or of compound according to example 1 ([…]). Insulin release is expressed as the secretion index (SI) relative to insulin release in LG..
As in the preceding example, for the experimental procedere, reference may be made to the there cited paper, except for the specific use of compound according to example 1. TABLE 13. Effect of ABA and of compound prepared according to example 1 on insulin release (SI) by human pacreatic beta cells at 30 minutes and 120 minutes.

[2] = tested on: human monocytes; experiment: Inhibition of ABA-induced PGE2 production in monocytes (EIA); format: cell-based; details: 6 h
Description: Monocytes, 25 x 10^6/Petri in complete RPMI, were incubated for 6 h with 100 nM ABA either alone, or in the presence of compound prepared according to example 1, at a concentration of 1 µM. At the end of the incubation, the substrate was centrifuged at 17,000xg for 5 minutes and the concentration of PGE2 was quantitated by using the kit: PGE2 monoclonal EIA kit (Cayman Chemical Co.), following the instructions suppled by the manufacturer.
The cells were lysed in 200 µl of deionized water in order to quantitate total proteins by the Bradford method (Bradford, M. M., 1976), after thre preliminary generation of a reference standard curve, obtained with different concentrations of bovine serum albumin. The spectrophotometric measurements were carried out at wavelength of 595 nm.
The experiment was carried out three times in sextuplicate.
The results were expressed as the average of the results from three independent experiments, as referred to control value. […] TABLE 7. Inhibition of PGE2 production, in human monocytes stimulated with ABA, by compound prepared according to example 1

[3] = tested on: human granulocytes; experiment: Production of reactive oxygen species (ROS), H2DCFDA fluorescence; format: cell-based
Description: Human granulocitytes, after ON incubation in complete DMEM/F12, were resuspended at 1x10^7/ml in HBSS and spiked with the fluorescent probe (10 µM), specific for ROS determination, 2',7'-dichlorodihydrofluorescein diacetate (H2DCFDA), for 30 min at 37 °C.
They were subsequently washed twice with HBSS and resuspended at 1x10^6 cells/ml in HBSS and then were kept at room temperature for approximately 30 minutes.
The cells (100 µl) were added to a 96-well plate pre-loaded with ABA 1 µM, either alone or with increasing concentrations of the compound prepared according to example 1.
The increase in fluorescence was measured at 10-sec intervals for 10 minutes, with Fluostar OPTIMA fluorometer (λexc: 485; λemis: 520).
The experiment was carried out three times in triplicate.
Human granulocutes stimulated with 1 µM ABA become activated, and produce quite large amounts of reactive oxygen species (ROS) (Bruzzone, jbc 2007). The results were expressed as the average of the results obtained from three independent experiments, from which the background value, obtained from the control, had been subtracted. TABLE 4. Inhibition of ROS production, in human granulocytes stimulated with ABA, by compound prepared according to example 1.

[4] = tested on: granulocytes; experiment: Inhibition of ABA-induced chemotaxis (granulocyte migration, ChemoTx); format: cell-based, human
Description: After ON (overnight) incubation in complete DMEM/F12, granulocytes were washed in HBSS and then were resuspended at the concentration of 1x10^7 cells/ml in chemotaxis buffer (HBSS:PBS:5% albumin; 39:16:1).
Chemotaxis was carried out on 96-well plates ChemoTx system microplates (Neuro Probe, Inc., Gaithersburg, MD, U.S.A.) with a polycarbonate filter with 3 µm-diameter pores. The compound prepared according to example 1 was diluted in chemotaxis buffer at various concentrations (5 µM, 100 nM, 1 nM, 0.1 nM) and was added, either alone or together with a solution of 1 µM ABA to the bottom of the plate. The suspension of the cells (25 µl/well) was added to the filter and the plate was incubated for 90 minutes at 37 °C. The migrated cells were transferred to a white 96-well plate and were counted with 60 µl of a solution containing 0.2 % (v/v) of Nonidet P40 and 1 µM Sitox green. After a 20-minute incubation at 37 °C, the fluorescence was measured with Fluostar OPTIMA fluorometer (excitation wavelength λexc = 485 nm and emission wavelength λemis = 520 nm) and the cell number was computed by using a standard cellular curve obtained from serial diltion cellular suspension of granulocytes. The result is expressed as the "chemotactic index" (CI), which corresponds to the ratio of the number of cells migrated towards the chemoattractant divided by the number of cells migrated towards the substrate). A chemotactic index higher than 1 is indicative of chemoattraction of cells. The test was carried out three times in sextuplicate.

[5] = tested on: INS-1 cells; experiment: Insulin release (secretion index) by INS-1 cells, scr or LANCL-2 silenced; format: cell-based, rat; details: 30 minutes
Description: Insulinoma cells of INS-1 rat were transfected with LANCL-2 silencing RNAs LANCL-2 (siRNAL2) or with nonsense RNA (scr) and were incubated in 5 mM glucose (LG) oppure 25 mM glucose (HG), in the absence or in the presence of 100 nM ABA or of compound according to example 1 (100 nM). Insulin release is expressed as the secretion index (SI) relative to insulin release in LG. As regards the experimental procedure, with the exception of use of compound according to example 1, reference can be made to the following paper, in which the properties which are the subject-matter of the present example were investigated for only ABA. Sturla L, Fresia C, Guida L, Grozio A, Vigliarolo T, Mannino E, Millo E, Bagnasco L, Bruzzone S, De Flora A, Zocchi E. Binding of abscisic acid to human LANCL2. Biochem Biophys Res Commun. 2011 Nov 18;415(2):390-5. TABLE 12. Effect of ABA and of compound from example 1 on insulin release (SI) by […] at 30 minutes.

[6] = LG, substance 100 nM, at 30 minutes
[7] = LG, substance 100 nM, at 120 minutes
[8] = LANCL2 siRNA, HG (25 mM glucose), substance 100 nM
[9] = LANCL2 siRNA, LG (5 mM glucose), substance 100 nM
[10] = SCR, HG (25 mM glucose), substance 100 nM
[11] = SCR, LG (5 mM glucose), substance 100 nM

Compound: CC1=CC(=O)CC(C)(C)C1(O)/C=C/C(C)=C\C(=O)O (racemic) [ABA, (2Z,4E)-5-(1-hydroxy-2,6,6-trimethyl-4-oxo-2-cyclohexen-1-yl)-3-methyl-2,4-pentadienoic acid, reference compound]
- SI (insulin secretion index relative to LG) [1, 6]: 0,91
- SI (insulin secretion index relative to LG) [1, 7]: 1,8
- Relative amount of PGE2 as referred to control ± SD ([2]; ABA 100 nM alone): 2,2±0,2
- Increase in fluorescence (delta OD)±SD ([3]; ABA 1 µM alone): 1238±8.7 delta OD
- CI±SD (chemotactic index) ([4]; ABA 1 µM alone): 1.63±0.10
- insulin release, secretion index (SI) relative to LG [5, 8]: 1.7
- insulin release, secretion index (SI) relative to LG [5, 9]: 1
- insulin release, secretion index (SI) relative to LG [5, 10]: 6.4
- insulin release, secretion index (SI) relative to LG [5, 11]: 1.7

Compound: CC(=C/C(=O)O)/C=C/C1(O)C(C)(C)CC(=O)C2OC21C (stereo not drawn) [Example 1, 2'α,3'α-dihydro-2'α,3'α-epoxyabscisic acid]
- SI (insulin secretion index relative to LG) ([1]; HG, ABA (100 nM) + compound (100 nM) together, time not printed in the row): 3,8
- SI (insulin secretion index relative to LG) ([1]; LG, ABA (100 nM) + compound (100 nM) together, time not printed in the row): 0,72
- SI (insulin secretion index relative to LG) [1, 6]: 1,8
- SI (insulin secretion index relative to LG) [1, 7]: 2,2
- Relative amount of PGE2 as referred to control ± SD ([2]; ABA 100 nM + compound 1 µM): 1,0±0,1
- inhibition at 1 µM ([2]; Homo sapiens, Monocyte, ABA 100 nM + compound 1 µM): 100%
- Increase in fluorescence (delta OD)±SD ([3]; ABA 1 µM + compound 0.01 nM): 1325±26.5 delta OD
- Increase in fluorescence (delta OD)±SD ([3]; ABA 1 µM + compound 0.5 nM): 680±13.6 delta OD
- Increase in fluorescence (delta OD)±SD ([3]; ABA 1 µM + compound 1 nM): 371±1.9 delta OD
- Increase in fluorescence (delta OD)±SD ([3]; ABA 1 µM + compound 1 µM): 46±0.2 delta OD
- inhibition at 10 pM ([3]; Homo sapiens, ROS production, ABA 1 µM, compound 0.01 nM): 0%
- inhibition at 0.0005 µM ([3]; Homo sapiens, ROS production, ABA 1 µM, compound 0.5 nM): 45%
- inhibition at 0.001 µM ([3]; Homo sapiens, ROS production, ABA 1 µM, compound 1 nM): 70%
- inhibition at 1 µM ([3]; Homo sapiens, ROS production, ABA 1 µM, compound 1 µM): 96%
- IC50 ([3]; Homo sapiens, inhibiting the production of ROS, ABA 1 µM): ~0.5 nM
- CI±SD (chemotactic index) ([4]; ABA 1 µM + compound 0.1 nM): 1.37±0.05
- CI±SD (chemotactic index) ([4]; ABA 1 µM + compound 1 nM): 1.32±0.05
- CI±SD (chemotactic index) ([4]; ABA 1 µM + compound 100 nM): 1.12±0.04
- CI±SD (chemotactic index) ([4]; ABA 1 µM + compound 5 µM): 0.78±0.03
- IC50 ([4]; Homo sapiens): ~1 nM
- inhibition at 0.0001 µM ([4]; Homo sapiens, migration towards ABA 1 µM, compound 0.1 nM): 38%
- inhibition at 0.001 µM ([4]; Homo sapiens, migration towards ABA 1 µM, compound 1 nM): 47%
- inhibition at 0.1 µM ([4]; Homo sapiens, migration towards ABA 1 µM, compound 100 nM): 80%
- inhibition at 5 µM ([4]; Homo sapiens, migration towards ABA 1 µM, compound 5 µM): 100%
- insulin release, secretion index (SI) relative to LG [5, 8]: 3
- insulin release, secretion index (SI) relative to LG ([5]; LANCL2 siRNA, HG, ABA 100 nM + compound 100 nM together): 8
- insulin release, secretion index (SI) relative to LG [5, 9]: 2
- insulin release, secretion index (SI) relative to LG ([5]; LANCL2 siRNA, LG, ABA 100 nM + compound 100 nM together): 5
- insulin release, secretion index (SI) relative to LG [5, 10]: 6
- insulin release, secretion index (SI) relative to LG ([5]; SCR, HG, ABA 100 nM + compound 100 nM together): 12
- insulin release, secretion index (SI) relative to LG [5, 11]: 2.5
- insulin release, secretion index (SI) relative to LG ([5]; SCR, LG, ABA 100 nM + compound 100 nM together): 8.5
